# Results reported in US10849339B2, “Beverages containing rare sugars” (The Coca-Cola Company, priority 2013, dated 2020).
# Legend:
# [1] = Sweetness evaluation against sucrose solutions in citric acid buffer, two panelists (Example 8); format: in vivo, human
# Procedure: The sweetness level of D-tagatose and FEMA GRAS FLAVOR 4701 was evaluated against 5%, 6%, and 7% sucrose solutions. All solutions were made in citric acid/potassium citrate buffer Beverages were made and chilled at 4° C. before tasting. Two panelists evaluated the beverages. Bottles were removed from the refrigerator and about 20 ml of beverage poured in 2 oz-plastic cups. Mineral water was given to panelists for palate rinsing before tasting and between tasting different samples. Unsalted crackers were also given.
# [2] = Sweetness recognition threshold concentration by taste testing; format: in vivo, human
# Excerpt: The term “sweetness recognition threshold concentration,” as generally used herein, is the lowest known concentration of a sweet compound that is perceivable by the human sense of taste, typically around 1.0% sucrose equivalence (1.0% SE). While the particular sweetness recognition threshold concentration between sweetness enhancers can vary, generally the concentration of sweetness enhancer is below 500 ppm, such as, for example, from about 5 ppm to about 300 ppm, from about 50 ppm to about 200 ppm or from about 100 ppm to about 200 ppm.
# Generally, the sweetness enhancers may enhance or potentiate the sweet taste of sweeteners without providing any noticeable sweet taste by themselves when present at or below the sweetness recognition threshold concentration of a given sweetness enhancer; however, the sweetness enhancers may themselves provide sweet taste at concentrations above their sweetness recognition threshold concentration. The sweetness recognition threshold concentration is specific for a particular enhancer and can vary based on the beverage matrix. The sweetness recognition threshold concentration can be easily determined by taste testing increasing concentrations of a given enhancer until greater than 1.0% sucrose equivalence in a given beverage matrix is detected. […]
# [3] = Taste test with eight panelists, sweetness rated against 1%, 1.5% and 2% sucrose controls (Example 1); format: in vivo, human
# Procedure: Taste tests were carried out with eight panelists. Bottles were removed from the refrigerator and about 50 ml of beverage was poured into 4 oz-plastic cups. Panelists were given mineral water to rinse their mouth before tasting and between tasting different samples. Unsalted crackers were also given to panelists to eat. Taste tests were done in two rounds: a first round in which a sample of D-psicose in citric acid/potassium citrate buffer and a sample of D-psicose and Reb-C in citric acid/potassium citrate buffer were evaluated, and a second round in which a sample of D-psicose in a lemon lime carbonated soft drink and a sample of D-psicose and Reb-C in a lemon lime carbonated soft drink were evaluated. In each round, panelists were asked to e choose the sweetest sample among the pair, then rate the sweetness level against control solutions of 1%, 1.5%, and 2% sucrose in citric acid/potassium citrate buffer.
# [4] = Sweetness evaluation against sucrose solutions in citric acid buffer, two panelists (Example 5); format: in vivo, human
# Procedure: First, the sweetness level of 2,4-dihydroxybenzoic acid was evaluated against three solutions of 1%, 2%, and 3% sucrose. Second, the sweetness level of a solution containing D-psicose and 500 ppm 2,4-dihydroxybenzoic acid was evaluated against 5%, 6.5%, and 7% sucrose solutions. All solutions were made in citric acid/potassium citrate buffer.
# Beverages were kept in the refrigerator overnight and tasted cold the following day. Two panelists evaluated the beverages. Bottles were removed from the refrigerator and about 20 ml of beverage poured in 2 oz-plastic cups. Mineral water was given for palate rinsing before tasting and between tasting different samples. Unsalted crackers were also given.
# [5] = sucrose part of the blend; from US20130041046A; cited from earlier work
# [6] = Sweetness evaluation against sucrose solutions in citric acid buffer (Example 7); format: in vivo, human
# Procedure: 4-Amino-5-(cyclohexyloxy)-2-methylquinoline-3-carboxylic acid was evaluated at 30 ppm. First, the sweetness level of the compound was evaluated against three solutions of 1%, 1.5%, and 2% sucrose. Second, the sweetness level of a solution containing D-psicose and 30 ppm amino-5-(cyclohexyloxy)-2-methylquinoline-3-carboxylic acid was evaluated against 5%, 6%, and 7% sucrose solutions.
# A solution containing a blend of sucrose and D-psicose with a total sweetness equivalent to 5.5% sucrose (3.5% sucrose and 2% SE D-psicose) was also made and evaluated for its sweetness with and without addition of 30 ppm 4-amino-5-(cyclohexyloxy)-2-methylquinoline-3-carboxylic acid. All solutions were made in citric acid/potassium citrate buffer.
# Beverages were kept in the refrigerator overnight and tasted cold the following day. Two panelists evaluated the beverages. Bottles were removed from the refrigerator and about 20 ml of beverage poured in 2 oz-plastic cups. Mineral water was given for thorough palate rinsing before tasting and between tasting different samples. Unsalted crackers were also given.
# [7] = Sweetness evaluation against sucrose solutions in citric acid buffer, three panelists (Example 6); format: in vivo, human; details: D-psicose (5% SE) in citric acid buffer
# [8] = Sucrose equivalence of D-psicose (background statement); format: in vivo, human; details: 2% (w/w) in a citric acid/potassium citrate matrix
# Excerpt: The sweetness of a non-sucrose sweetener can be measured against a sucrose reference by determining the non-sucrose sweetener's sucrose equivalence. Typically, taste panelists are trained to detect sweetness of reference sucrose solutions containing between 1-15% sucrose (w/v). Other non-sucrose sweeteners are then tasted at a series of dilutions to determine the concentration of the non-sucrose sweetener that is as sweet as a given percent sucrose reference. For example, if a 1% solution of a sweetener is as sweet as a 10% sucrose solution, then the sweetener is said to be 10 times as potent as sucrose, and has 10% sucrose equivalence.
compound,measurement,setting,value
O=C(CO)[C@@H](O)[C@@H](O)[C@H](O)CO [D-tagatose],sweetness against 5% and 6% sucrose solutions,[1]; D-tagatose (5% SE) in citric acid buffer,5 % sucrose
Rebaudioside C,sweetness recognition threshold concentration,[2]; in a citric acid/potassium citrate buffer,270 ppm
same,sweetness recognition threshold concentration,[2]; in cola,about 345 ppm
same,sucrose equivalence,"[3]; 220 ppm in citric acid/potassium citrate buffer, alone",less than 1.0%
same,detected sucrose equivalence after addition of Rebaudioside C,"[3]; about 220 ppm added to lemon-lime carbonated soft drink, citric acid buffer, D-psicose about 2% by weight, embodiment statement",about 2.0%
"O=C(O)c1ccc(O)cc1O [2,4-dihydroxybenzoic acid]","sweetness against 1%, 2% and 3% sucrose solutions",[4]; 500 ppm alone in citric acid buffer,< 1 % sucrose
same,increase of detected sucrose equivalence,"[4]; added at or below its sweetness recognition threshold to a beverage containing D-psicose, embodiment statement",about 1.5%
Cc1nc2cccc(OC3CCCCC3)c2c(N)c1C(=O)O [4-amino-5-(cyclohexyloxy)-2-methylquinoline-3-carboxylic acid],sweetness with 30 ppm enhancer in combination with sucrose individually,[5],7%
same,sweetness with 30 ppm enhancer in combination with D-psicose individually,[6]; D-psicose part of the blend (2% SE),3 % SE
same,increase of detected sucrose equivalence,"[6]; added at or below its sweetness recognition threshold, b195 after b194 (D-psicose and sucrose), embodiment statement",about 5.0%
CCCNC(=O)C(C)(C)COc1cccc2c1C(N)=NS(=O)(=O)N2 [FEMA GRAS flavor 4701],sucrose equivalence,[1]; 15 ppm alone in citric acid buffer,less than 1.0%
O=C(CO)[C@H](O)[C@H](O)[C@H](O)CO [D-psicose],sweetness equivalence,[3]; 2% D-psicose in the absence of Rebaudioside C,1.2 % sucrose
same,detected sucrose equivalence before addition of Rebaudioside C,"[3]; lemon-lime carbonated soft drink, citric acid buffer, D-psicose about 2% by weight, embodiment statement",about 1.2%
same,sweetness against 5% and 6.5% sucrose solutions,"[4]; D-psicose solution (5% SE), citric acid buffer",5 % sucrose
same,sweetness against 5% and 6.5% sucrose solutions,[7],5 % sucrose
same,sucrose equivalence,[8],about 1.26%
same,sweetness against 5% and 6% sucrose solutions,[6]; D-psicose (5% SE) in citric acid buffer,5 % sucrose
